# Measurements taken from US20240209019A1, “COMPOUNDS AND METHODS FOR TREATING HYPERKALEMIA” (ARDELYX, INC., priority 2019, published 2024).
# Target: HSD2 (Homo sapiens (Human), UniProt P80365)
# Experiment: HSD2 activity: cortisol conversion in human descending colon organoid monolayer cultures (Example 112)
# Settings: human descending colon epithelial cultures on transwells; 30 minute pre-incubation, then 40 nM cortisol for four hours; cortisol HTRF assay
# Description: Human descending colon epithelial stem cells were cultured as 3D organoids in accordance with Sato et al. Gastroenterology. […] Cultures were differentiated using SBM containing ENRA and 30 nM aldosterone on day 3, and cultures were used for assay on day 6 or 7. Compounds were diluted in DMSO and serial dilutions prepared by titrating in DMSO. Compounds were then diluted into DMEM/F12. Transwell plates containing descending colon cultures were washed twice with DMEM/F12 and compound was added to the apical compartment. Cells were incubated with test compound for 30 minutes at 37° C., 5% CO2 to equilibrate across the cell membrane. A second compound plate was prepared in which the serially diluted compounds in DMSO were diluted into DMEM/F12 containing 40 nM cortisol. Following the 30 minute pre-incubation step, the apical media was aspirated and compounds diluted in DMEM/F12 with 40 nM cortisol were added to the apical side of the transwell. The plate was then incubated for four hours at 37° C., 5% CO2. Cortisol levels were measured using a cortisol HTRF assay kit as described by the manufacturer (Cisbio). Concentration-response curves were then plotted and IC50 (and pIC50) values were determined using least squares non-linear regression.
# Inhibition of HSD2 activity as measured by the inhibition of the conversion of cortisone to cortisol.
# HSD2, sequence (P80365 whole entry): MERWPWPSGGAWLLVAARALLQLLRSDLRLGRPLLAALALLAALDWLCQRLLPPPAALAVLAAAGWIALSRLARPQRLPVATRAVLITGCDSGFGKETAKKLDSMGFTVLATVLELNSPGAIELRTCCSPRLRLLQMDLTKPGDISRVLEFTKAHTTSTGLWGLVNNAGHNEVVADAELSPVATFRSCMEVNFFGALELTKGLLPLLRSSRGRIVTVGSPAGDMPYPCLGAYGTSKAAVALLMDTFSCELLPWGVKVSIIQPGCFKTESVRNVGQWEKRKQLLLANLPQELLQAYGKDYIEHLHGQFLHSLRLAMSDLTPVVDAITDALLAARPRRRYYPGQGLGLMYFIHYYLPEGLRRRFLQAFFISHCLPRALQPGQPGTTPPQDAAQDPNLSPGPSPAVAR
compound,measurement,value
"COCC(=O)O[C@H]1CC[C@@]2(C)[C@@H](CC[C@]3(C)[C@@H]2C(=O)C=C2[C@@H]4C[C@@](C)(C(=O)O)CC[C@]4(C)CC[C@]23C)[C@]1(C)C(=O)OCc1oc(=O)oc1C [Compound 709-1, (2S,4aS,6aS,6bR,8aR,9S,10S,12aS,12bR,14bR)-10-[(2-methoxyacetyl)oxy]-2,4a,6a,6b,9,12a-hexamethyl-9-{[(5-methyl-2-oxo-2H-1,3-dioxol-4-yl)methoxy]carbonyl}-13-oxo-1,2,3,4,4a,5,6,6a,6b,7,8,8a,9,10,11,12,12a,12b,13,14b-icosahydropicene-2-carboxylic acid]",pIC50,7.2
"COCCOCCOCCSCc1oc(=O)oc1COC(=O)CO[C@H]1CC[C@]2(C)[C@H]3C(=O)C=C4[C@@H]5C[C@@](C)(C(=O)O)CC[C@]5(C)CC[C@@]4(C)[C@]3(C)CC[C@H]2C1(C)C [Compound 710-1, (2S,4aS,6aS,6bR,8aR,10S,12aS,12bR,14bR)-2,4a,6a,6b,9,9,12a-heptamethyl-13-oxo-10-(2-oxo-2-{[2-oxo-5-(2,5,8-trioxa-11-thiadodecan-12-yl)-2H-1,3-dioxol-4-yl]methoxy}ethoxy)-1,2,3,4,4a,5,6,6a,6b,7,8,8a,9,10,11,12,12a,12b,13,14b-icosahydropicene-2-carboxylic acid]",pIC50,6
"CC1(C)[C@@H](OCC(=O)OCc2oc(=O)oc2CO)CC[C@]2(C)[C@H]3C(=O)C=C4[C@@H]5C[C@@](C)(C(=O)O)CC[C@]5(C)CC[C@@]4(C)[C@]3(C)CC[C@@H]12 [Compound 711-1, (2S,4aS,6aS,6bR,8aR,10S,12aS,12bR,14bR)-10-(2-{[5-(hydroxymethyl)-2-oxo-2H-1,3-dioxol-4-yl]methoxy}-2-oxoethoxy)-2,4a,6a,6b,9,9,12a-heptamethyl-13-oxo-1,2,3,4,4a,5,6,6a,6b,7,8,8a,9,10,11,12,12a,12b,13,14b-icosahydropicene-2-carboxylic acid]",pIC50,5.8
"Cc1oc(=O)oc1COC(=O)CO[C@H]1CC[C@]2(C)[C@H]3C(=O)C=C4[C@@H]5C[C@@](C)(C(=O)O)CC[C@]5(C)CC[C@@]4(C)[C@]3(C)CC[C@H]2C1(C)C [Compound 712-1, (2S,4aS,6aS,6bR,8aR,10S,12aS,12bR,14bR)-2,4a,6a,6b,9,9,12a-heptamethyl-10-{2-[(5-methyl-2-oxo-2H-1,3-dioxol-4-yl)methoxy]-2-oxoethoxy}-13-oxo-1,2,3,4,4a,5,6,6a,6b,7,8,8a,9,10,11,12,12a,12b,13,14b-icosahydropicene-2-carboxylic acid]",pIC50,5
"CCOC(=O)c1cnn([C@H]2CC[C@@]3(C)[C@@H](CC[C@]4(C)[C@@H]3C(=O)C=C3[C@@H]5C[C@@](C)(C(=O)O)CC[C@]5(C)CC[C@]34C)[C@]2(C)C(=O)OCc2oc(=O)oc2C)c1OC [Compound 713-1, (2S,4aS,6aS,6bR,8aR,9S,10S,12aS,12bR,14bR)-10-[4-(ethoxycarbonyl)-5-methoxy-1H-pyrazol-1-yl]-2,4a,6a,6b,9,12a-hexamethyl-9-{[(5-methyl-2-oxo-2H-1,3-dioxol-4-yl)methoxy]carbonyl}-13-oxo-1,2,3,4,4a,5,6,6a,6b,7,8,8a,9,10,11,12,12a,12b,13,14b-icosahydropicene-2-carboxylic acid]",pIC50,6.9
